Data from the NIST ThermoML archive (doi:10.1016/j.jct.2005.11.003).
± gives the expanded uncertainty stated by the source.

Assays:
[1] = xn = mol fraction of the nth substance listed; settings: 298.15 K, 101 kPa, Liquid
[2] = excess molar enthalpy (molar enthalpy of mixing); xn = mol fraction of the nth substance listed; settings: 298.15 K, 101 kPa, Liquid

CCCCOC=O [butyl methanoate] + ClCCCl
mass density ([1]; x1 = 0.0423): 1223.68 ± 0.61 kg/m3 | mass density ([1]; x1 = 0.0859): 1202 ± 0.62 kg/m3 | mass density ([1]; x1 = 0.1303): 1180.75 ± 0.64 kg/m3 | mass density ([1]; x1 = 0.1772): 1159.35 ± 0.67 kg/m3 | mass density ([1]; x1 = 0.2251): 1138.25 ± 0.7 kg/m3 | mass density ([1]; x1 = 0.2748): 1117.45 ± 0.74 kg/m3 | mass density ([1]; x1 = 0.3271): 1096.31 ± 0.78 kg/m3 | mass density ([1]; x1 = 0.382): 1075.28 ± 0.83 kg/m3 | mass density ([1]; x1 = 0.4376): 1054.83 ± 0.88 kg/m3 | mass density ([1]; x1 = 0.497): 1034.05 ± 0.93 kg/m3 | mass density ([1]; x1 = 0.5604): 1012.84 ± 0.99 kg/m3 | mass density ([1]; x1 = 0.6255): 992.02 ± 1.1 kg/m3 | mass density ([1]; x1 = 0.6925): 971.62 ± 1.1 kg/m3 | mass density ([1]; x1 = 0.7638): 950.97 ± 1.2 kg/m3 | mass density ([1]; x1 = 0.8379): 930.45 ± 1.3 kg/m3 | mass density ([1]; x1 = 0.9173): 909.53 ± 1.3 kg/m3 | excess molar enthalpy ([2]; x1 = 0.0384): 0.00172 ± 0.000789 kcal/mol | excess molar enthalpy ([2]; x1 = 0.0884): 0.000765 ± 0.000765 kcal/mol | excess molar enthalpy ([2]; x1 = 0.1406): -0.00378 ± 0.00086 kcal/mol | excess molar enthalpy ([2]; x1 = 0.2002): -0.0103 ± 0.00105 kcal/mol | excess molar enthalpy ([2]; x1 = 0.254): -0.018 ± 0.00129 kcal/mol | excess molar enthalpy ([2]; x1 = 0.3052): -0.026 ± 0.00155 kcal/mol | excess molar enthalpy ([2]; x1 = 0.35): -0.0329 ± 0.00177 kcal/mol | excess molar enthalpy ([2]; x1 = 0.3874): -0.0387 ± 0.00194 kcal/mol | excess molar enthalpy ([2]; x1 = 0.4396): -0.0436 ± 0.0021 kcal/mol | excess molar enthalpy ([2]; x1 = 0.4751): -0.0469 ± 0.0022 kcal/mol | excess molar enthalpy ([2]; x1 = 0.5277): -0.049 ± 0.00225 kcal/mol | excess molar enthalpy ([2]; x1 = 0.5938): -0.0454 ± 0.00215 kcal/mol | excess molar enthalpy ([2]; x1 = 0.6645): -0.0433 ± 0.00208 kcal/mol | excess molar enthalpy ([2]; x1 = 0.741): -0.0382 ± 0.00194 kcal/mol | excess molar enthalpy ([2]; x1 = 0.8303): -0.029 ± 0.00165 kcal/mol | excess molar enthalpy ([2]; x1 = 0.9138): -0.0176 ± 0.00129 kcal/mol

ClCCCCl [1,3-dichloropropane] + CCCCOC(=O)CC
mass density ([1]; x2 = 0.0407): 1159.66 ± 0.7 kg/m3 | mass density ([1]; x2 = 0.1229): 1123.34 ± 0.65 kg/m3 | mass density ([1]; x2 = 0.2119): 1087.43 ± 0.61 kg/m3 | mass density ([1]; x2 = 0.2612): 1068.85 ± 0.59 kg/m3 | mass density ([1]; x2 = 0.3653): 1032.69 ± 0.55 kg/m3 | mass density ([1]; x2 = 0.4229): 1014.17 ± 0.53 kg/m3 | mass density ([1]; x2 = 0.4801): 996.73 ± 0.52 kg/m3 | mass density ([1]; x2 = 0.5422): 978.78 ± 0.52 kg/m3 | mass density ([1]; x2 = 0.6802): 942.1 ± 0.52 kg/m3 | mass density ([1]; x2 = 0.7534): 924.3 ± 0.53 kg/m3 | mass density ([1]; x2 = 0.9139): 888.6 ± 0.54 kg/m3

ClCCCCl [1,3-dichloropropane] + CCCCOC(C)=O
mass density ([1]; x2 = 0.046): 1159.83 ± 0.71 kg/m3 | mass density ([1]; x2 = 0.0904): 1142.04 ± 0.7 kg/m3 | mass density ([1]; x2 = 0.1361): 1124.29 ± 0.69 kg/m3 | mass density ([1]; x2 = 0.1839): 1106.48 ± 0.68 kg/m3 | mass density ([1]; x2 = 0.2336): 1088.53 ± 0.67 kg/m3 | mass density ([1]; x2 = 0.2841): 1070.96 ± 0.66 kg/m3 | mass density ([1]; x2 = 0.3935): 1035.06 ± 0.65 kg/m3 | mass density ([1]; x2 = 0.5106): 999.49 ± 0.65 kg/m3 | mass density ([1]; x2 = 0.6371): 964.06 ± 0.67 kg/m3 | mass density ([1]; x2 = 0.7043): 946.37 ± 0.68 kg/m3 | mass density ([1]; x2 = 0.7737): 928.82 ± 0.7 kg/m3 | mass density ([1]; x2 = 0.8467): 911.1 ± 0.71 kg/m3 | mass density ([1]; x2 = 0.923): 893.45 ± 0.72 kg/m3

ClCCCCCCCl [1,6-dichlorohexane] + CCCCOC=O
mass density ([1]; x2 = 0.0782): 1052.81 ± 1.1 kg/m3 | mass density ([1]; x2 = 0.1483): 1042.74 ± 1.2 kg/m3 | mass density ([1]; x2 = 0.2157): 1032.73 ± 1.2 kg/m3 | mass density ([1]; x2 = 0.2827): 1022.46 ± 1.2 kg/m3 | mass density ([1]; x2 = 0.3478): 1012.18 ± 1.2 kg/m3 | mass density ([1]; x2 = 0.4104): 1002.02 ± 1.2 kg/m3 | mass density ([1]; x2 = 0.5319): 981.37 ± 1.3 kg/m3 | mass density ([1]; x2 = 0.5893): 971.18 ± 1.3 kg/m3 | mass density ([1]; x2 = 0.6457): 960.88 ± 1.3 kg/m3 | mass density ([1]; x2 = 0.7539): 940.28 ± 1.4 kg/m3 | mass density ([1]; x2 = 0.8053): 930.03 ± 1.4 kg/m3 | mass density ([1]; x2 = 0.9044): 909.61 ± 1.4 kg/m3 | mass density ([1]; x2 = 0.9513): 899.53 ± 1.4 kg/m3 | excess molar enthalpy ([2]; x2 = 0.0701): 0.0129 ± 0.00115 kcal/mol | excess molar enthalpy ([2]; x2 = 0.1508): 0.0227 ± 0.00143 kcal/mol | excess molar enthalpy ([2]; x2 = 0.2299): 0.0298 ± 0.00167 kcal/mol | excess molar enthalpy ([2]; x2 = 0.3026): 0.0332 ± 0.00177 kcal/mol | excess molar enthalpy ([2]; x2 = 0.371): 0.0338 ± 0.00179 kcal/mol | excess molar enthalpy ([2]; x2 = 0.434): 0.0322 ± 0.00174 kcal/mol | excess molar enthalpy ([2]; x2 = 0.491): 0.0291 ± 0.00165 kcal/mol | excess molar enthalpy ([2]; x2 = 0.5401): 0.0255 ± 0.00153 kcal/mol | excess molar enthalpy ([2]; x2 = 0.5778): 0.0221 ± 0.00143 kcal/mol | excess molar enthalpy ([2]; x2 = 0.6131): 0.02 ± 0.00136 kcal/mol | excess molar enthalpy ([2]; x2 = 0.6659): 0.0173 ± 0.00127 kcal/mol | excess molar enthalpy ([2]; x2 = 0.7195): 0.016 ± 0.00124 kcal/mol | excess molar enthalpy ([2]; x2 = 0.7775): 0.0137 ± 0.00117 kcal/mol | excess molar enthalpy ([2]; x2 = 0.8372): 0.0105 ± 0.00108 kcal/mol | excess molar enthalpy ([2]; x2 = 0.8968): 0.00693 ± 0.000956 kcal/mol | excess molar enthalpy ([2]; x2 = 0.9528): 0.00313 ± 0.000837 kcal/mol
